Laboratory results as given in patent publication US11155612B2, “vNAR antibody which binds VEGF for use in dogs or cats” (CENTRO DE INVESTIGACIÓN CIENTÍFICA Y DE EDUCACIÓN SUPERIOR …, priority 2017, dated 2021).

Test system: human umbilical vein endothelial cells (HUVEC) expressing GFP and normal human dermal fibroblasts (NHDF)
Test: Angiogenesis assay (vascular tube formation, HUVEC/NHDF co-culture)
Type: cell-based
Details: VEGF 4 ng/ml; 100 μM suramin positive control
Description: In the vascular tube formation assay, a co-culture system of human umbilical vein endothelial cells (HUVEC) expressing GFP and normal human dermal fibroblasts (NHDF) was used. For cell seeding on day 0, one cryogenic vial of NHDF cells was thawed and resuspended in 12 ml of complete seeding medium. Then, 100 μl of this solution was added per well of a 96-well plate. The cells were incubated at room temperature for 1 hour. Then, 1 cryogenic vial of HUVECs was thawed and resuspended in 12 ml of complete seeding medium. HUVEC (100 μL per well) were seeded into the same plate as NHDFs. The cells were incubated at room temperature for another hour. The plate was then examined in an IncuCyte ZOOM and scanned using the “FOIL” scan type. After 24 hours, the culture medium was replaced with 150 μl of growth medium.
Forty-eight hours after seeding, the cells were treated with VEGF at 4 ng/ml and the test compounds at eight concentrations.
Serial dilutions of the compounds were prepared using assay media containing VEGF up to the final concentrations in FIG. 3. Then, 150 μl of medium containing the vNARs were added. In untreated wells, media without VEGF were added. For wells without compound, media with VEGF was added. […]
The formation of vessel tubes by fluorescently-labeled HUVECs was measured using live-cell imaging, and the effects of the vNARs on this process were assessed.

In the case of `Cc1ccc(C(=O)Nc2ccc(S(=O)(=O)O)c3cc(S(=O)(=O)O)cc(S(=O)(=O)O)c23)cc1NC(=O)c1cccc(NC(=O)Nc2cccc(C(=O)Nc3cc(C(=O)Nc4ccc(S(=O)(=O)O)c5cc(S(=O)(=O)O)cc(S(=O)(=O)O)c45)ccc3C)c2)c1` [suramin, reference compound], the “inhibition of VEGF-increased tube branching” value is reported as “inhibited”.
